# Experimental data: US6017958A, “Method of treating malignant tumors with thyroxine analogues having no significant hormonal activity” (Octamer, Inc., priority 1997, dated 2000)
# Like-named read-outs stand apart in the source and are kept apart here.
# Assays:
# [1] = system: seven human cancer cell lines; assay: Cytocidal action on human cancer cell lines; format: cell-based
# Method: (§1) Seven human cancer cell lines were obtained from the American Tissue Culture Collection (Rockville, Md.) and maintained in the recommended growth media. Cells were seeded into wells (2 cm^2) at a density of 2×10^4 cells/cm^2. Various concentrations of Compounds 1-13 were added to the media at the time of seeding.
# (§2) The cultures were incubated for 72 hours at 37° C. (5% CO2 atmosphere). Following incubation, cells were detached with trypsin and counted in a hemocytometer.
# HT 144 (melanoma) = assay: Cytocidal action/growth inhibition, HT 144; format: cell-based; settings: Homo sapiens
# Method: as §1, §2
# I100 designates the concentration at which no viable cells remained; I50 the concentration at which 50% viable cells remained, as compared to a control.
# E-ras 20 cells were cultured as reported, Bauer et al., 1996, "Modification of growth related enzymatic pathways and apparent loss of tumorigenicity of a ras-transformed bovine endothelial cell line by treatment with 5-iodo-6-amino-1,2-benzopyrone (INH2 BP)" Intl. J. Oncol. 8:239-252; HT-144 (melanoma), DU-145 (prostatic cancer), HeLa (cervical cancer), HL 60 (promyelocytic leukemia), MDA-MB-231 (mammary cancer), SK-Br-3 (mammary cancer), T47D (ductal mammary cancer), A559 (lung cancer) were obtained from American Type Culture Collection (Rockville, Md.) and cultured in prescribed media. The effect of DIME was tested in cultures with a starting cell density of 2×10^4 cells per cm^2 and comparison of the effect of DIME on cell growth (intact cells identified by Trypan blue exclusion) was assayed by direct cell counting after trypsinization in a hemocytometer 72 hours after drug addition.
# For DIME-exposure experiments cells were seeded into 2 cm^2 wells at a density of 2×10^4 cells/cm^2. DIME at various concentrations was added to the medium at the time of seeding. The cell cultures were then incubated for 3 days (37° C. in 5% at CO2 atmosphere).
# E-ras 20 cells = assay: cells; format: in vitro ADME, bovine; settings: Bos taurus, 24 hours, read-out: Extracellular DIME (concentration that causes 100% growth inhibition)
# Method: Monolayer cultures in 9.6 cm^2 wells (3 ml medium) were exposed to [^14 C]-DIME (10.55 mCi/mmol) for 24 hours, then washed 7 times with 1 ml medium containing unlabeled DIME. The cells were dissolved in 1 ml of 4% Na2 CO3 and 0.2 M NaOH and radioactivity measured by scintillation counting. Cell volume was determined by hematocrit and cell counting from parallel wells treated with unlabeled DIME.
# A striking property of DIME is its apparent selectivity for tumors in vivo. We performed drug metabolism and cellular DIME uptake tests to further characterize this property. Incubation of cells in culture with [^14 DIME, under conditions described previously, Bauer et al., 1996, "Modification of growth related enzymatic pathways and apparent loss of tumorigenicity of a ras-transformed bovine endothelial cell line by treatment with 5-iodo-6-amino-1,2-benzopyrone (INH2 BP)" Intl. J. Oncol. […] As shown in Table 9 the tumorigenic transformed cells in general took up DIME more rapidly than nontransformed cells (CV-1) or cells that were less sensitive to killing-by DIME (e.g. E-ras 20). […] On the other hand homogenates of organs of normal mice actively metabolize (de-esterify) DIME as illustrated in Table 10.
# DIME-esterase = assay: Esterase cleavage of DIME in tissue homogenates; format: in vitro ADME; settings: mouse tissue homogenates
# Method: (a) mouse tissue homogenate (brain, kidney, liver lung) consisting of 0.2 g of tissue in 1.0 ml. of homogenization buffer (50 mM Tris (pH 7.4), 400 mM NaCl, 10 mM MgCl2, 1 mM EDTA, 0.5% NP-40, 0.5 mM PMSF) each were combined with 1.0 ml of MES buffer (100 mM ph 6.5) containing 20 μM [^14 C]-DIME (10.55 mCi/mmol), and the mixtures were incubated at 37° C. for 4 hours. Then to each tube was added sequentially ethyl acetate (1.5 ml), ammonium sulfate (900 mg) and 60% perchloric acid (160 μl), with vortexing after each addition. After standing for 10 minutes, phase separation was enhanced by benchtop centrifugation. The upper (ethyl acetate) layer was drawn off, and the lower aqueous and interphase material was extracted with a second portion of ethyl acetate (1.5 ml). The ethyl acetate extracts (combined) contained more than 90% of the total cpm present in the original incubate (ca. 4×10^5 cpm). The extracts were evaporated to dryness using a stream of N^2, the respective residues taken up in ethyl acetate (100 μl) and aliquots (10 μl) spotted on analytical silica-gel TLC plates (Whatman PE SIL G/UV flexible plates 250 μm thickness, 10 cm×20 cm) and developed with 3:1:0.8 v:v:v n-hexane/ethyl acetate/ethanol. Analyte bands, including [^14 C]-DIME as reference standard, were visualized by autoradiography. […]
# radioactivity of the [^14 C]-DIME was 20,470 cpm/nmol.
# MDA-MB-231 cells = assay: Time-lapse videomicroscopy of mitosis; format: cell-based, human
# Method: Cells in sealed T-25 tissue culture flasks were placed into a temperature-controlled incubation chamber built to enclose an inverted phase-contrast microscope. The chamber was shielded from ambient room light. Every 5 min, the microscope light was switched on for 12s, during which time an image was captured by an imaging system obtained from Compix, Inc. (Mars, Pa., USA). Image sequences were analyzed with software from the same company.
# ^a Mitoses were monitored by timelapse videomicroscopy during
# continuous exposure of cells to DIME;
# ^b Fusion of daughter cells usually occurred within minutes of
# cytokinesis and involved 2-5 daughter cells.
# [2] = 0.25 to 1.0 g/kg daily per os; cited from earlier work
# MDA-MB-231 xenografts = settings: cited from earlier work
# [3] = system: mouse pituitary thyrotropic tumors / non-malignant mouse pituitary adenoma; settings: cited from earlier work
smiles,measurement,setting,value
"COC(=O)c1cc(I)c(Oc2ccc(OC)cc2)c(I)c1 [Compound 1, Methyl 3,5-diiodo-4-(4'-methoxyphenoxy)benzoate]",cytocidal action,[1]; 72 hours,maximally active
same,activity in cellular assays and in vivo,[1]; cellular assays and in vivo,highly active
same,IC50,"HT 144 (melanoma); HT-144, 72 h, day 3, Table 11, read-out: I50 (day 3)",500 nM
same,IC50,"HT 144 (melanoma); HT-144, 72 h, Table 4, read-out: I50",500 nM
same,IC100,"HT 144 (melanoma); HT-144, 72 h, Table 4, read-out: I100 (no viable cells remained)",4 µM
same,IC100,E-ras 20 cells,10 µM
same,DIME-esterase activity,DIME-esterase,"highest rate of ""DIME-esterase"" activity occurred in brain homogenates"
same,increase of average time spent in mitosis,MDA-MB-231 cells; 1 μM,more than 20 fold
same,mitoses yielding daughter cells which fused (share),MDA-MB-231 cells; 1 μM,Twenty percent
same,rate of entry into mitosis / traversal of interphase,MDA-MB-231 cells; 1 μM,did not affect the rate at which the cells traversed interphase
same,No. of mitosis followed by fusion of daughter cells,"MDA-MB-231 cells; 1.0 μM, 35 mitoses monitored, control 0 of 32",7
same,delay in mitosis,"MDA-MB-231 cells; 1 μM, control approximately 0.5 hr",13 h
same,daughter cells in irregular division (FIG. 12),"MDA-MB-231 cells; 1 μM, control exactly 2",6 daughter cells
same,noticeable toxicity,[2],no noticeable toxicity
same,dose-response of antitumor effect,MDA-MB-231 xenografts; 0.25 g/kg and 1.0 g/kg,had the same antitumor effect
same,tumor regression,"MDA-MB-231 xenografts; 25-35 days, 0.25 to 1.0 g/kg daily per os, nude mice (Kun et al., 1996)",70-85%
same,growth of mouse pituitary tumor,[3],no inhibitory activity
